{"source": "ChEMBL document CHEMBL1201862", "about": "“PubChem BioAssay data set” (2004)", "assay_in_all_cases": "NCI tumour cell line growth inhibition, 48 h", "key": {"786-0": {"tested_on": "786-0"}, "SK-MEL-2": {"tested_on": "SK-MEL-2"}, "A498": {"tested_on": "A498"}, "OVCAR-4": {"tested_on": "OVCAR-4"}, "OVCAR-8": {"tested_on": "OVCAR-8"}, "COLO 205": {"tested_on": "COLO 205"}, "Malme-3M": {"tested_on": "Malme-3M"}, "HL-60": {"tested_on": "HL-60"}, "UACC-257": {"tested_on": "UACC-257"}, "SN12C": {"tested_on": "SN12C"}, "Hs-578T": {"tested_on": "Hs-578T"}, "SNB-75": {"tested_on": "SNB-75"}, "KM12": {"tested_on": "KM12"}, "MDA-MB-435": {"tested_on": "MDA-MB-435"}, "OVCAR-5": {"tested_on": "OVCAR-5"}, "PC-3": {"tested_on": "PC-3"}, "NCI/ADR-RES": {"tested_on": "NCI/ADR-RES"}, "M14": {"tested_on": "M14"}, "HCC 2998": {"tested_on": "HCC 2998"}, "SF-539": {"tested_on": "SF-539"}, "TK-10": {"tested_on": "TK-10"}, "MDA-MB-231": {"tested_on": "MDA-MB-231"}, "NCI-H226": {"tested_on": "NCI-H226"}, "SNB-19": {"tested_on": "SNB-19"}, "SW-620": {"tested_on": "SW-620"}, "SF-295": {"tested_on": "SF-295"}, "SK-MEL-5": {"tested_on": "SK-MEL-5"}, "CCRF-CEM": {"tested_on": "CCRF-CEM"}, "UACC-62": {"tested_on": "UACC-62"}, "OVCAR-3": {"tested_on": "OVCAR-3"}, "UO-31": {"tested_on": "UO-31"}, "LOX IMVI": {"tested_on": "LOX IMVI"}, "SK-MEL-28": {"tested_on": "SK-MEL-28"}, "EKVX": {"tested_on": "EKVX"}, "SR": {"tested_on": "SR"}, "SF-268": {"tested_on": "SF-268"}, "DU-145": {"tested_on": "DU-145"}, "ACHN": {"tested_on": "ACHN"}, "HT-29": {"tested_on": "HT-29"}, "K562": {"tested_on": "K562"}, "IGROV-1": {"tested_on": "IGROV-1"}, "SK-OV-3": {"tested_on": "SK-OV-3"}, "BT-549": {"tested_on": "BT-549"}, "MCF7": {"tested_on": "MCF7"}, "HCT-116": {"tested_on": "HCT-116"}, "CAKI-1": {"tested_on": "CAKI-1"}, "RXF 393": {"tested_on": "RXF 393"}, "MDA-N": {"tested_on": "MDA-N"}, "NCI-H460": {"tested_on": "NCI-H460"}, "A549": {"tested_on": "A549"}, "HOP-62": {"tested_on": "HOP-62"}, "HCT-15": {"tested_on": "HCT-15"}, "MOLT-4": {"tested_on": "MOLT-4"}, "HOP-92": {"tested_on": "HOP-92"}, "NCI-H23": {"tested_on": "NCI-H23"}, "U-251": {"tested_on": "U-251"}, "T47D": {"tested_on": "T47D"}, "NCI-H522": {"tested_on": "NCI-H522"}}, "note": "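Interpolation was linear, between the two tested concentrations surrounding the appropriate level; five concentrations were tested over 48 hours in 96-well plates. Abbreviation: GI50, concentration required for 50% inhibition of growth.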 Active and inactive are the calls of the source. Cut-off read from the data, not from the text of the source: active = GI50 up to about 1.1 µM and inactive = higher.", "data": [{"smiles": "O=S1(=O)c2ccccc2N2CCCc3cc(Cl)cc1c32", "values": [{"measurement": "GI50", "setting": "786-0", "result": "40.4 µM (inactive)"}, {"measurement": "GI50", "setting": "SK-MEL-2", "result": "44.2 µM (inactive)"}, {"measurement": "GI50", "setting": "A498", "result": "> 100 µM (inactive)"}, {"measurement": "GI50", "setting": "OVCAR-4", "result": "46.2 µM (inactive)"}, {"measurement": "GI50", "setting": "OVCAR-8", "result": "> 100 µM (inactive)"}, {"measurement": "GI50", "setting": "COLO 205", "result": "> 100 µM (inactive)"}, {"measurement": "GI50", "setting": "Malme-3M", "result": "70.6 µM (inactive)"}, {"measurement": "GI50", "setting": "HL-60", "result": "> 100 µM (inactive)"}, {"measurement": "GI50", "setting": "UACC-257", "result": "> 100 µM (inactive)"}, {"measurement": "GI50", "setting": "SN12C", "result": "> 100 µM (inactive)"}, {"measurement": "GI50", "setting": "Hs-578T", "result": "27.4 µM (inactive)"}, {"measurement": "GI50", "setting": "SNB-75", "result": "12.6 µM (inactive)"}, {"measurement": "GI50", "setting": "KM12", "result": "> 100 µM (inactive)"}, {"measurement": "GI50", "setting": "MDA-MB-435", "result": "> 100 µM (inactive)"}, {"measurement": "GI50", "setting": "OVCAR-5", "result": "> 100 µM (inactive)"}, {"measurement": "GI50", "setting": "PC-3", "result": "> 100 µM (inactive)"}, {"measurement": "GI50", "setting": "NCI/ADR-RES", "result": "> 100 µM (inactive)"}, {"measurement": "GI50", "setting": "M14", "result": "> 100 µM (inactive)"}, {"measurement": "GI50", "setting": "HCC 2998", "result": "> 100 µM (inactive)"}, {"measurement": "GI50", "setting": "SF-539", "result": "35 µM (inactive)"}, {"measurement": "GI50", "setting": "TK-10", "result": "> 10 µM (inactive)"}, {"measurement": "GI50", "setting": "MDA-MB-231", "result": "37 µM (inactive)"}, {"measurement": "GI50", "setting": "NCI-H226", "result": "> 100 µM (inactive)"}, {"measurement": "GI50", "setting": "SNB-19", "result": "56.6 µM (inactive)"}, {"measurement": "GI50", "setting": "SW-620", "result": "> 100 µM (inactive)"}, {"measurement": "GI50", "setting": "SF-295", "result": "29.3 µM (inactive)"}, {"measurement": "GI50", "setting": "SK-MEL-5", "result": "> 100 µM (inactive)"}, {"measurement": "GI50", "setting": "CCRF-CEM", "result": "> 100 µM (inactive)"}, {"measurement": "GI50", "setting": "UACC-62", "result": "60.1 µM (inactive)"}, {"measurement": "GI50", "setting": "OVCAR-3", "result": "67.5 µM (inactive)"}, {"measurement": "GI50", "setting": "UO-31", "result": "> 100 µM (inactive)"}, {"measurement": "GI50", "setting": "LOX IMVI", "result": "> 100 µM (inactive)"}, {"measurement": "GI50", "setting": "SK-MEL-28", "result": "> 100 µM (inactive)"}, {"measurement": "GI50", "setting": "EKVX", "result": "> 100 µM (inactive)"}, {"measurement": "GI50", "setting": "SR", "result": "> 100 µM (inactive)"}, {"measurement": "GI50", "setting": "SF-268", "result": "34.4 µM (inactive)"}, {"measurement": "GI50", "setting": "DU-145", "result": "> 100 µM (inactive)"}, {"measurement": "GI50", "setting": "ACHN", "result": "> 100 µM (inactive)"}, {"measurement": "GI50", "setting": "HT-29", "result": "> 100 µM (inactive)"}, {"measurement": "GI50", "setting": "K562", "result": "> 100 µM (inactive)"}, {"measurement": "GI50", "setting": "IGROV-1", "result": "> 100 µM (inactive)"}, {"measurement": "GI50", "setting": "SK-OV-3", "result": "51.9 µM (inactive)"}, {"measurement": "GI50", "setting": "BT-549", "result": "> 100 µM (inactive)"}, {"measurement": "GI50", "setting": "MCF7", "result": "> 100 µM (inactive)"}, {"measurement": "GI50", "setting": "HCT-116", "result": "> 100 µM (inactive)"}, {"measurement": "GI50", "setting": "CAKI-1", "result": "61.2 µM (inactive)"}, {"measurement": "GI50", "setting": "RXF 393", "result": "25.2 µM (inactive)"}, {"measurement": "GI50", "setting": "MDA-N", "result": "> 100 µM (inactive)"}, {"measurement": "GI50", "setting": "NCI-H460", "result": "> 100 µM (inactive)"}, {"measurement": "GI50", "setting": "A549", "result": "> 100 µM (inactive)"}, {"measurement": "GI50", "setting": "HOP-62", "result": "41.1 µM (inactive)"}, {"measurement": "GI50", "setting": "HCT-15", "result": "> 100", "unit": "µM"}, {"measurement": "GI50", "setting": "MOLT-4", "result": "> 100 µM (inactive)"}]}, {"smiles": "C=CCN(CCN(CC=C)S(=O)(=O)c1ccc(C)cc1)S(=O)(=O)c1ccc(C)cc1", "values": [{"measurement": "GI50", "setting": "HOP-92", "result": "95.9 µM (inactive)"}, {"measurement": "GI50", "setting": "A498", "result": "> 100 µM (inactive)"}, {"measurement": "GI50", "setting": "OVCAR-4", "result": "> 100 µM (inactive)"}, {"measurement": "GI50", "setting": "OVCAR-8", "result": "> 100 µM (inactive)"}, {"measurement": "GI50", "setting": "COLO 205", "result": "> 100 µM (inactive)"}, {"measurement": "GI50", "setting": "UACC-257", "result": "> 100 µM (inactive)"}, {"measurement": "GI50", "setting": "SN12C", "result": "> 100 µM (inactive)"}, {"measurement": "GI50", "setting": "Hs-578T", "result": "> 100 µM (inactive)"}, {"measurement": "GI50", "setting": "SNB-75", "result": "> 100 µM (inactive)"}, {"measurement": "GI50", "setting": "KM12", "result": "> 100 µM (inactive)"}, {"measurement": "GI50", "setting": "MDA-MB-435", "result": "> 100 µM (inactive)"}, {"measurement": "GI50", "setting": "NCI-H23", "result": "> 100 µM (inactive)"}, {"measurement": "GI50", "setting": "PC-3", "result": "> 100 µM (inactive)"}, {"measurement": "GI50", "setting": "NCI/ADR-RES", "result": "> 100 µM (inactive)"}, {"measurement": "GI50", "setting": "M14", "result": "> 100 µM (inactive)"}, {"measurement": "GI50", "setting": "HCC 2998", "result": "> 100 µM (inactive)"}, {"measurement": "GI50", "setting": "TK-10", "result": "> 100 µM (inactive)"}, {"measurement": "GI50", "setting": "MDA-MB-231", "result": "> 100 µM (inactive)"}, {"measurement": "GI50", "setting": "NCI-H226", "result": "> 100 µM (inactive)"}, {"measurement": "GI50", "setting": "SNB-19", "result": "> 100 µM (inactive)"}, {"measurement": "GI50", "setting": "U-251", "result": "> 100 µM (inactive)"}, {"measurement": "GI50", "setting": "SW-620", "result": "> 100 µM (inactive)"}, {"measurement": "GI50", "setting": "SF-295", "result": "> 100 µM (inactive)"}, {"measurement": "GI50", "setting": "SK-MEL-5", "result": "> 100 µM (inactive)"}, {"measurement": "GI50", "setting": "CCRF-CEM", "result": "> 100 µM (inactive)"}, {"measurement": "GI50", "setting": "OVCAR-3", "result": "> 100 µM (inactive)"}, {"measurement": "GI50", "setting": "UO-31", "result": "> 100 µM (inactive)"}, {"measurement": "GI50", "setting": "LOX IMVI", "result": "55.1 µM (inactive)"}, {"measurement": "GI50", "setting": "SK-MEL-28", "result": "> 100 µM (inactive)"}, {"measurement": "GI50", "setting": "T47D", "result": "> 100 µM (inactive)"}, {"measurement": "GI50", "setting": "SR", "result": "> 100 µM (inactive)"}, {"measurement": "GI50", "setting": "SF-268", "result": "> 100 µM (inactive)"}, {"measurement": "GI50", "setting": "DU-145", "result": "> 100 µM (inactive)"}, {"measurement": "GI50", "setting": "ACHN", "result": "> 100 µM (inactive)"}, {"measurement": "GI50", "setting": "HT-29", "result": "> 100 µM (inactive)"}, {"measurement": "GI50", "setting": "K562", "result": "> 100 µM (inactive)"}, {"measurement": "GI50", "setting": "NCI-H522", "result": "> 100 µM (inactive)"}, {"measurement": "GI50", "setting": "MCF7", "result": "> 100 µM (inactive)"}, {"measurement": "GI50", "setting": "HCT-116", "result": "> 100 µM (inactive)"}, {"measurement": "GI50", "setting": "RXF 393", "result": "> 100 µM (inactive)"}, {"measurement": "GI50", "setting": "MDA-N", "result": "> 100 µM (inactive)"}, {"measurement": "GI50", "setting": "NCI-H460", "result": "> 100 µM (inactive)"}, {"measurement": "GI50", "setting": "A549", "result": "> 100 µM (inactive)"}, {"measurement": "GI50", "setting": "HCT-15", "result": "> 100", "unit": "µM"}, {"measurement": "GI50", "setting": "MOLT-4", "result": "> 100 µM (inactive)"}]}]}
